Key:
[1] = biological target: T1, BrLTP2.1 (Brassica rapa, UniProt A0A8D9LMK4); experiment: TNS displacement fluorescence; type: binding; details: 2.5 uM protein and 2.5 uM TNS, ligand 0-10 uM, pH 7.0; competitive with TNS
T1 construct: gene BRAPAZ1V2_A03P14030.2; predicted mature protein, residues 27-98 of 98 (signal peptide removed), amplified from genomic DNA; N-terminal T7-tag and C-terminal His6 kept; pET21a(+) in E. coli SHuffle T7 Express lysY

[2] = biological target: T1, BrLTP2.1; experiment: TNS displacement fluorescence; protein lipid overlay; type: binding; details: 2.5 uM protein and 2.5 uM TNS, ligand 0-10 uM, pH 7.0; competitive with TNS

T1 sequence (A0A8D9LMK4 entry or part of it): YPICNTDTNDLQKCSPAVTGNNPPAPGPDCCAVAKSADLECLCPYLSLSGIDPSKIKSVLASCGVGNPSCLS

In the case of `CCCCCCCCCCCCCCCC(=O)O` [palmitic acid], the TNS displacement fluorescence [1] is reported as “Each of the three free fatty acids tested strongly reduced TNS-dependent fluorescence”.

With `CCCCCCCCCCCCCCCCCC(=O)O` [stearic acid] the “TNS displacement fluorescence; protein lipid overlay” value [2] was “Each of the three free fatty acids tested strongly reduced TNS-dependent fluorescence”.

From paper PMC6255697, “The major nectar protein of Brassica rapa is a non-specific lipid transfer protein, BrLTP2.1, with strong antifungal activity” (Journal of Experimental Botany, 2018)
